For eleven molecules, IC50 results are on record in ChEMBL document CHEMBL2203038, “Isolation and synthesis of two antiproliferative calamenene-type sesquiterpenoids from Sterculia tavia from the Madagascar rain forest” (Bioorg Med Chem, 2012).

The subject of the assay is A2780. The experiment in a line: Antiproliferative activity against human A2780 cells after 2 days by alamar blue assay. It is filed as functional, cell-based. Particulars: A2780, 48 h.

Bounds are passed on as bounds.

As a reminder, the IC50 is the midpoint of a concentration-inhibition curve. Higher therefore signals lower potency. In turn, `COc1cc2c(cc1C)C(C(C)C)CC=C2C` (stereo unspecified) yielded an IC50 greater than 50 µM.
The same measure for `COc1cc2c(cc1C)C(C(C)C)CC(O)[C@]2(C)O` (stereo partly specified): greater than 50 µM; for `COc1cc2c(cc1C)C(C(C)C)CC(=O)[C@]2(C)O` (stereo partly specified): 33.9 µM.
The same measure for `COc1cc2c(cc1C)C(C(C)C)=CC(O)[C@]2(C)O` (stereo partly specified): 22.1 µM; for `COc1cc2c(cc1C)C(O)(C(C)C)C(O)C(O)[C@]2(C)O` (mixture of isomers): 35.5 µM; for `COc1cc2c(cc1C)[C@](O)(C(C)C)C(=O)C(=O)[C@]2(C)O` (stereo in doubt): 5.5 µM.
The same measure for `COc1cc2c(cc1C)[C@@](O)(C(C)C)C(=O)C(=O)[C@@]2(C)O` (stereo in doubt): 5.9 µM.
The molecule `COc1cc2c(cc1C)[C@](O)(C(C)C)C(=O)C(=O)[C@@]2(C)O` (stereo in doubt) registered a half-inhibitory concentration (IC50) of 6.7 µM.
The value for `COc1cc2c(cc1C)[C@@](O)(C(C)C)C(=O)C(=O)[C@]2(C)O` (stereo in doubt) was 6.3 µM; that for `COc1cc2c(cc1C)C(C(C)C)=CC(=O)[C@]2(C)O` [LACINILENE C METHYL ETHER] was 4 µM.
The value for `CC1=Cc2c(c(C)cc(O)c2C(C)C)C(=O)C1=O` [MANSONONE G] was 10.2 µM.
